Molecules are shown by their SMILES.

A word on the IC50: it is the concentration at which inhibition is half-maximal.

A short description of this data set: Inhibition of P-gp in doxorubicin-resistant human MCF7/ADR cells assessed as reversal of doxorubicin resistance by measuring doxorubicin IC50 incubated for 48 hrs by MTT assay (Rvb = doxorubicin alone = 64.8 +/- 2.1 uM). (In general: Formazan colour is commonly taken as a measure of viable cells.)
Turning to `C=C1[C@H](O)[C@H]2[C@@H](OC(=O)c3ccccc3)[C@](C)(O)C[C@]2(O)[C@H](OC(C)=O)[C@@H](C)/C=C/C(C)(C)C(=O)[C@H](OC(C)=O)[C@H]1OC(=O)c1ccccc1`, the IC50 was determined as 28 µM.
With `C=C1[C@H](OC(C)=O)[C@H]2[C@@H](OC(=O)c3ccccc3)[C@@H](C)C[C@]2(OC(C)=O)C(=O)[C@@H](C)/C=C/C(C)(C)C(=O)[C@H](O)[C@H]1OC(=O)c1ccccc1` the figure was 9.5 µM; with `C=C1[C@H](OC(C)=O)[C@H]2[C@@H](OC(=O)c3ccccc3)[C@@H](C)C[C@]2(OC(C)=O)C(=O)[C@@H](C)/C=C/C(C)(C)C(=O)[C@H](O)[C@H]1OC(C)=O`, 13.3 µM; with `C=C1[C@H](OC(C)=O)[C@H]2[C@@H](OC(=O)c3ccccc3)[C@@H](C)C[C@]2(OC(C)=O)C(=O)[C@@H](C)/C=C/C(C)(C)C(=O)[C@H](OC(C)=O)[C@H]1OC(C)=O`, 9.6 µM.
With `C=C1[C@H](OC(C)=O)[C@H]2[C@@H](OC(=O)c3ccccc3)[C@@H](C)C[C@]2(OC(C)=O)C(=O)[C@@H](C)/C=C/C(C)(C)C(=O)[C@H](OC(C)=O)[C@H]1OC(=O)c1ccccc1` the figure was 8 µM; with `C=C1[C@H](OC(=O)c2ccccc2)[C@H]2[C@@H](OC(C)=O)[C@@H](C)C[C@]2(OC(C)=O)C(=O)[C@@H](C)/C=C/C(C)(C)C(=O)[C@H](OC(=O)c2ccccc2)[C@H]1OC(C)=O`, 7.3 µM.
With `C=C1[C@H](OC(C)=O)[C@H]2[C@@H](OC(=O)c3ccccc3)[C@](C)(O)C[C@]2(O)C(=O)[C@@H](C)/C=C/C(C)(C)C(=O)[C@H](OC(C)=O)[C@H]1OC(=O)c1ccccc1` the figure was 7.8 µM.
For the compound `C=C1[C@H](OC(C)=O)[C@H]2[C@@H](OC(=O)c3ccccc3)[C@](C)(OC(C)=O)C[C@]2(O)C(=O)[C@@H](C)/C=C/C(C)(C)C(=O)[C@H](OC(=O)C(C)C)[C@H]1OC(C)=O`, the half-inhibitory concentration (IC50) was 5.3 µM.
With `C=C1[C@H](O)[C@H]2[C@@H](OC(=O)c3ccccc3)[C@](C)(OC(C)=O)C[C@]2(O)[C@H](OC(C)=O)[C@@H](C)/C=C/C(C)(C)C(=O)[C@H](OC(C)=O)[C@H]1OC(C)=O`, the IC50 turned out to be 20.6 µM.
As for `C=C1[C@H](OC(C)=O)[C@H]2[C@@H](OC(=O)c3ccccc3)[C@](C)(OC(C)=O)C[C@]2(O)C(=O)[C@@H](C)/C=C/C(C)(C)C(=O)[C@H](OC(C)=O)[C@H]1OC(=O)C(C)C`, the IC50 is 12.9 µM.
Then `C=C1[C@H](OC(C)=O)[C@H]2[C@@H](OC(=O)c3ccccc3)[C@](C)(O)C[C@]2(O)C(=O)[C@@H](C)/C=C/C(C)(C)C(=O)[C@H](OC(=O)C(C)C)[C@H]1OC(C)=O`, with 5 µM.
With `C=C1[C@H](OC(C)=O)[C@H]2[C@@H](OC(=O)c3ccccc3)[C@@H](C)C[C@]2(O)C(=O)[C@@H](C)/C=C/C(C)(C)C(=O)[C@H](O)[C@H]1OC(C)=O` the figure was 25.3 µM; with `C=C1[C@H](OC(=O)c2ccccc2)[C@@H](OC(C)=O)[C@@H](OC(C)=O)C(C)(C)/C=C/[C@H](C)C(=O)[C@@]2(OC(C)=O)C[C@H](C)[C@H](OC(=O)c3ccccc3)[C@@H]2[C@H]1OC(C)=O`, 9.9 µM.
Then `C=C1[C@H](OC(C)=O)CC(=O)C(C)(C)/C=C/[C@H](C)C(=O)[C@@]2(OC(C)=O)C[C@H](C)[C@H](OC(C)=O)[C@@H]2[C@H]1OC(=O)c1ccccc1`, with 14.2 µM; and `C=C1[C@H](OC(=O)c2ccccc2)[C@H]2[C@@H](OC(C)=O)[C@@H](C)C[C@]2(OC(C)=O)C(=O)[C@@H](C)/C=C/C(C)(C)C(=O)[C@H](O)[C@H]1OC(C)=O`, with 21.6 µM; and `C=C1[C@H](OC(C)=O)[C@H]2[C@@H](OC(=O)CC(C)=O)[C@@H](C)C[C@]2(O)C(=O)[C@@H](C)/C=C/C(C)(C)C(=O)[C@H](OC(C)=O)[C@H]1OC(=O)c1ccccc1`, with 10.3 µM.
`C=C1[C@H](OC(C)=O)CC(=O)C(C)(C)/C=C/[C@H](C)C(=O)[C@@]2(OC(C)=O)C[C@H](C)[C@H](OC(=O)c3ccccc3)[C@@H]2[C@H]1OC(C)=O`: the concentration for half-maximal inhibition (IC50) amounted to 13.1 µM.

The record behind these values is BindingDB's records for doi:10.1021/acs.jnatprod.8b00507 (Chinese Academy of Sciences, 2019).
